Assay results from PMC7531004, “Discovery of gramicidin A analogues with altered activities by multidimensional screening of a one-bead-one-compound library” (Nature Communications, 2020).
Values joined by “and” are separate entries in the source; they are usually repeats but may differ in a detail not shown here. Equal values may be shown once. Read-outs that look alike come from different tables or passages of the source. Where a SMILES comes first, the peptide text is derived from it. [ ]: non-standard residue; d: D form. The star is where a group is joined. NHCH2CH2OH = OCCN*; For = O=C*

Assays:
[1] = tested on: MSSA1 (methicillin-susceptible Staphylococcus aureus); type: cell-based
Protocol: (§1) Evaluation of antibacterial spectra of purified peptides. The MIC assay was performed according to the Clinical and Laboratory Standards Institute protocols. The antibacterial activities of the purified peptides A1, B01–B04, B11–B13, B21, and B22 were measured using the broth microdilution method. 6 Serial dilutions of the peptides were prepared in cation adjusted Mueller Hinton Broth. Each dilution (100 µL) was dispensed to each well of the round-bottom plate to obtain final concentrations ranging from 64 µg/mL to 0.00024 µg/mL. Bacteria were grown at 37 °C overnight on Tryptic Soy Broth or Mueller Hinton Broth agar plates.
(§2) The bacterial colonies were suspended in 0.9% saline to obtain OD 625 of 0.08–0.13 using a spectrophotometer UV-1280 (Shimadzu). The resultant suspension was diluted with cation adjusted Mueller Hinton Broth (1/20). The resultant mixture (10 .0 µL) was inoculated to each well of the plates (approximately 5 × 10^4 CFU/well), mixed, and incubated at 37 °C for 18–24 h. The MIC value was determined as the minimum concentration that inhibited growth of bacteria. For Streptococcus species, cation adjusted Mueller Hinton Broth supplemented with 5% laked horse blood was used. […]

[2] = Membrane disruption assay of purified peptides (carboxyfluorescein leakage); type: biochemical; design: key: % lysis; Triton X-100 = 100%, DMSO = 0%; details: three replicate lines
Protocol: Membrane disruption assay of purified peptides. 5(6)-Carboxyfluorescein (CF)-encapsulated large […]
through Nuclepore polycarbonate filters mounted in the mini-extruder apparatus. A solution of egg yolk phosphatidylcholine (EYPC, 22.0 mg, 28.9 µmol) in CHCl3 (225 µL) and egg yolk phosphatidylglycerol (1.2 0 […]
mM HEPES, 100 mM NaCl, 20 mM CF) by sonication. After five -times freeze-thaw cycles, the lipid […]
concentration of the resultant CF -encapsulated LUV suspension was deduced from the phosphatidylcholine concentration determined by using Phospholipid C -Test Wako. The lipid concentration of the LUV […]
as 5-fold serial dilution. The solution of peptide (2.0 µL) and the CF-encapsulated LUV suspension (200 […]
The resultant suspension was incubated at room temperature for 30 min. The fluorescence (Ex. 490 nm/Em. 517 nm) of each well was measured on Gemini EM microplate reader. Triton X-100/H2O (5/95, 3.0 µL), DMSO (2.0 µL), and the LUV suspension were mixed in each plate to determine 100% lysis. […]
was used to determine 0% lysis. The membrane disruption activities of tested peptides ( I) were normalized against 100% lysis by Triton X-100 (Imax) and 0% lysis by DMSO ( I0) according to Supplementary Equation 2 , where Ix is the fluorescence intensity.
The membrane disruption activities of the purified peptides were plotted as means of three replicates (Supplementary Figure 1).

[3] = tested on: Enterococcus faecalis JCM5803; details: for antibacterial activity/MIC: E. faecalis; for Antibacterial activity MIC: JCM5803
Protocol: (§3) Third, 1 was subjected to five pathogenic Gram-positive bacteria.
as §1, §2

[4] = tested on: Streptococcus pyogenes SSI-9; details: for antibacterial activity/MIC: S. pyogenes; for Antibacterial activity MIC: SSI-9
Protocol: as §3, §1, §2

[5] = tested on: Streptococcus agalactiae JCM5671; details: for Antibacterial activity MIC: JCM5671; for antibacterial activity/MIC: S. agalactiae
Protocol: as §3, §1, §2

[6] = tested on: Listeria monocytogenes 10403S; details: for Antibacterial activity MIC: 10403S; for antibacterial activity/MIC: L. monocytogenes
Protocol: as §3, §1, §2

[7] = tested on: Streptococcus pneumoniae NBRC 102642; details: for Antibacterial activity MIC: NBRC 102642; for antibacterial activity/MIC: S. pneumoniae
Protocol: as §3, §1, §2

[8] = H+/Na+ transport assay of purified peptides; details: for Supplementary Figure 5 dose-response value (H+/Na+ transport): three replicate lines
Protocol: First, we evaluated the ion channel function of 1 using liposomes. To mimic a negatively charged Gram-positive bacterial membrane, the liposomes were prepared as large unilamellar vesicles (LUVs) comprising a 19:1 mixture of egg yolk phosphatidylcholine (EYPC) and egg yolk phosphatidylglycerol (EYPG)[57]. Pyranine, a pH-dependent fluorescent dye[58], was encapsulated in the LUVs and a pH gradient was applied across the membrane. H^+/Na^+ transport induced by a peptide was monitored by changes in the fluorescence intensity of pyranine.

[9] = read-out: EC50, H+/Na+ transport assay, 1st experiment
[10] = read-out: EC50, H+/Na+ transport assay, 2nd experiment
[11] = read-out: EC50, H+/Na+ transport assay, 3rd experiment
[12] = read-out: H+/Na+ transport activity EC50, EYPC/EYPG (19:1) LUVs
[13] = read-out: H+/Na+ transport activity/EC50, mean ± SD of three independent experiments

antibacterial activity/MIC [1] [µg/mL] | antibacterial activity/MIC [3] [µg/mL] | Antibacterial activity MIC [3] [µM] | antibacterial activity/MIC [4] [µg/mL] | Antibacterial activity MIC [4] [µM] | Antibacterial activity MIC [5] [µM] | antibacterial activity/MIC [5] [µg/mL] | Antibacterial activity MIC [6] [µM] | antibacterial activity/MIC [6] [µg/mL] | SMILES | Supplementary Figure 1 dose-response value ([2]; concentration 0.000512 nM) | Supplementary Figure 1 dose-response value ([2]; concentration 0.00256 nM) | Supplementary Figure 1 dose-response value ([2]; concentration 0.0128 nM) | Supplementary Figure 1 dose-response value ([2]; concentration 0.064 nM) | Supplementary Figure 1 dose-response value ([2]; concentration 0.32 nM) | Supplementary Figure 1 dose-response value ([2]; concentration 1.6 nM) | Supplementary Figure 1 dose-response value ([2]; concentration 8 nM) | Supplementary Figure 1 dose-response value ([2]; concentration 40 nM) | Supplementary Figure 1 dose-response value ([2]; concentration 200 nM) | Supplementary Figure 1 dose-response value ([2]; concentration 1000 nM) | Supplementary Figure 1 dose-response value ([2]; concentration 5000 nM) | other results
8 | 0.25 | 0.13 | 0.015 | 0.008 | 0.54 | 1 | 1.1 | 2 | CC(C)C[C@@H](NC(=O)[C@H](Cc1c[nH]c2ccccc12)NC(=O)[C@@H](CC(C)C)NC(=O)[C@H](Cc1c[nH]c2ccccc12)NC(=O)[C@@H](CC(C)C)NC(=O)[C@H](Cc1c[nH]c2ccccc12)NC(=O)[C@H](NC(=O)[C@@H](NC(=O)[C@H](NC(=O)[C@H](C)NC(=O)[C@H](NC(=O)[C@H](C)NC(=O)CNC(=O)[C@@H](NC=O)C(C)C)C(C)C)C(C)C)C(C)C)C(C)C)C(=O)N[C@@H](Cc1c[nH]c2ccccc12)C(=O)NCCO [A1] (For-VGA[dV]A[dV]V[dV]W[dL]W[dL]W[dL]W-NHCH2CH2OH) | 15.596 and 11.1897 and 18.8476 | 19.0421 and 18.9023 and 11.8141 | 18.8248 and 18.451 and 13.318 | 5.787 and 7.036 and 10.8676 | 6.642 and 18.6722 and 17.2971 | 5.416 and 5.449 and 6.466 | 18.3076 and 19.5293 and 5.647 | 20.3219 and 7.57 and 17.0093 | 24.2624 and 22.7393 and 19.0922 | 20.1834 and 27.4358 and 26.1069 | 74.0004 and 66.4045 and 47.3037 | Antibacterial activity MIC [7]: 0.001 µM; antibacterial activity/MIC [7]: 0.0019 µg/mL; Supplementary Figure 5 dose-response value (H+/Na+ transport) ([8]; concentration 0.000512 nM): 1.8002 and 1.763 and 1.206; Supplementary Figure 5 dose-response value (H+/Na+ transport) ([8]; concentration 0.00256 nM): 3.307 and 4.634 and 1.407; Supplementary Figure 5 dose-response value (H+/Na+ transport) ([8]; concentration 0.0128 nM): 5.867 and 6.44 and 5.481; Supplementary Figure 5 dose-response value (H+/Na+ transport) ([8]; concentration 0.064 nM): 6.841 and 9.002 and 6.572; Supplementary Figure 5 dose-response value (H+/Na+ transport) ([8]; concentration 0.32 nM): 16.8499 and 16.683 and 16.1323; Supplementary Figure 5 dose-response value (H+/Na+ transport) ([8]; concentration 1.6 nM): 35.8143 and 34.663 and 30.2235; Supplementary Figure 5 dose-response value (H+/Na+ transport) ([8]; concentration 8 nM): 59.1193 and 56.2604 and 57.9939; Supplementary Figure 5 dose-response value (H+/Na+ transport) ([8]; concentration 40 nM): 69.1281 and 68.6879 and 67.3822; Supplementary Figure 5 dose-response value (H+/Na+ transport) ([8]; concentration 200 nM): 71.9954 and 72.6939 and 69.0451; Supplementary Figure 5 dose-response value (H+/Na+ transport) ([8]; concentration 1000 nM): 75.1932 and 74.1998 and 72.8534; Supplementary Figure 5 dose-response value (H+/Na+ transport) ([8]; concentration 5000 nM): 74.4116 and 69.1356 and 72.7894; EC50 [8, 9]: 1.9 nM; EC50 [8, 10]: 3.5 nM; EC50 [8, 11]: 1.99 nM; EC50 [8, 12]: 2.5 nM; EC50 [8, 13]: 2.46 ± 0.9 nM
16 | 0.5 | 0.27 | 0.03 | 0.016 | 8.7 | 16 | 4.3 | 8 | CC(C)C[C@@H](NC(=O)[C@H](Cc1c[nH]c2ccccc12)NC(=O)[C@H](NC(=O)[C@@H](NC(=O)[C@H](NC(=O)[C@H](C)NC(=O)[C@H](NC(=O)[C@H](C)NC(=O)CNC(=O)[C@@H](NC=O)C(C)C)C(C)C)C(C)C)C(C)C)C(C)C)C(=O)N[C@@H](Cc1c[nH]c2ccccc12)C(=O)N[C@@H](C(=O)N[C@@H](Cc1c[nH]c2ccccc12)C(=O)N[C@@H](C(=O)N[C@@H](Cc1c[nH]c2ccccc12)C(=O)NCCO)C(C)C)C(C)C [B01] (For-VGA[dV]A[dV]V[dV]W[dL]W[dV]W[dV]W-NHCH2CH2OH) | 5.613 and 12.0264 and 5.319 | 11.158 and 7.538 and 10.5473 | 8.299 and 14.9537 and 14.0939 | 5.499 and 8.531 and 5.078 | 13.2144 and 15.7695 and 7.692 | 9.848 and 4.6318 and 9.4348 | 14.4288 and 20.3717 and 10.7944 | 26.5947 and 14.0138 and 18.3251 | 33.1976 and 27.0157 and 30.6543 | 29.7517 and 27.7024 and 34.1347 | 48.3001 and 45.6479 and 77.7437 | Antibacterial activity MIC [7]: 0.0021 µM; antibacterial activity/MIC [7]: 0.0039 µg/mL; Supplementary Figure 5 dose-response value (H+/Na+ transport) ([8]; concentration 0.000512 nM): 1.909 and 4.796 and 3.187; Supplementary Figure 5 dose-response value (H+/Na+ transport) ([8]; concentration 0.00256 nM): 2.582 and 3.582 and 5.168; Supplementary Figure 5 dose-response value (H+/Na+ transport) ([8]; concentration 0.0128 nM): 3.806 and 6.172 and 6.274; Supplementary Figure 5 dose-response value (H+/Na+ transport) ([8]; concentration 0.064 nM): 6.1 and 7.567 and 7.349; Supplementary Figure 5 dose-response value (H+/Na+ transport) ([8]; concentration 0.32 nM): 11.2834 and 14.5673 and 12.3484; Supplementary Figure 5 dose-response value (H+/Na+ transport) ([8]; concentration 1.6 nM): 32.2794 and 31.2161 and 30.2392; Supplementary Figure 5 dose-response value (H+/Na+ transport) ([8]; concentration 8 nM): 59.2885 and 57.8145 and 59.5121; Supplementary Figure 5 dose-response value (H+/Na+ transport) ([8]; concentration 40 nM): 71.8328 and 71.2991 and 68.3245; Supplementary Figure 5 dose-response value (H+/Na+ transport) ([8]; concentration 200 nM): 69.4784 and 69.9514 and 71.5477; Supplementary Figure 5 dose-response value (H+/Na+ transport) ([8]; concentration 1000 nM): 71.9268 and 73.661 and 73.9278; Supplementary Figure 5 dose-response value (H+/Na+ transport) ([8]; concentration 5000 nM): 81.6644 and 79.4929 and 76.8567; EC50 [8, 9]: 2.67 nM; EC50 [8, 10]: 1.67 nM; EC50 [8, 11]: 2.49 nM; EC50 [8, 12]: 2.3 nM; EC50 [8, 13]: 2.28 ± 0.54 nM
